{"source": "patent US20240083888A1", "about": "“SMALL MOLECULE INHIBITOR FOR CATHEPSIN C AND MEDICINAL USE THEREOF” (REISTONE BIOPHARMA COMPANY LIMITED, priority 2020, published 2024)", "key": {"[1]": {"experiment": "Pharmacokinetic experiment in BALB/c mice", "type": "in vivo", "conditions": "for AUC(0-t) / clearance / half-life / Vd / Tmax / bioavailability: male, mouse, plasma; for Vd: read-out: Vdss", "method": "BALB/c mice (male, 20 to 30 g, fasting)\nPharmacokinetic characteristics of the compounds in rodent after intravenous or oral administration were determined by standard protocols. In the experiment, the compound was formulated into a clear solution, and administered to mice by single intravenous injection or oral administration. The intravenous injection vehicle was a mixed vehicle of 500 dimethyl sulfoxide and 9500 (3000 aqueous sulfobutylether cyclodextrin solution). The oral vehicle is a solution of 0.50% hydroxypropylmethylcellulose and 0.10% polysorbate 80 in water. Whole blood samples within 24 hours were collected, and the supernatants were separated to obtain plasma samples. Quantitative analysis of plasma concentration was carried out by LC-MS/MS analysis method, and the pharmacokinetic parameters, such as peak concentration (Cmax), clearance (Cl), half-life (T1/2), volume of distribution (Vdss) and area under the drug-time curve (AUC), were calculated."}, "CatC": {"target": "CatC (Homo sapiens (Human), UniProt P53634)", "sequence (P53634 25-134)": "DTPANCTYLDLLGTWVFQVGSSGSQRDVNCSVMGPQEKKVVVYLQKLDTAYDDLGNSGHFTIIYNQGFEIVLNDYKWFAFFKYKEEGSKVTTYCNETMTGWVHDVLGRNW", "sequence (P53634 231-394)": "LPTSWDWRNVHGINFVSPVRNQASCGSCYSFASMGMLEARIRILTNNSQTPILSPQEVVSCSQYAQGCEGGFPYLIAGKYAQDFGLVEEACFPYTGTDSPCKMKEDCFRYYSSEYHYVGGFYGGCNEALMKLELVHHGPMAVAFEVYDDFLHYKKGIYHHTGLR", "sequence (P53634 395-463)": "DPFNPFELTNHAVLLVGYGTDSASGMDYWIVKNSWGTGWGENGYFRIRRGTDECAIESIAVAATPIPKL", "experiment": "In vitro CatC cell activity experiment in U937 cell line", "type": "cell-based", "method": "The U937 cell line was resuscitated and passed for about two generations, and the cell line with good growth status was selected. The cell suspension was transferred into a centrifuge tube, and centrifuged at 800 to 1000 rpm for 3 to 5 minutes. The supernatant was discarded. An appropriate volume of culture medium was added to the centrifuge tube, which was gently pipetted to resuspend the cells evenly. The cells were counted using a Vi-Cell XR cell counter. The cell suspension was adjusted to an appropriate concentration. The cell suspension was added into a 384-well plate ([…]). The compound was formulated into a 10 mM solution with DMSO. The compound was diluted with DMSO to obtain a 1 mM solution, and a semi-logarithmi dilution was carried out by HPD300 with DMSO to obtain 10 concentrations. Gly-Phe-AFC was formulated into a 35 mM solution with DMSO and divided. […] After adding the compounds and incubating for 1 hour in an incubator, substrate-AFC was added (12.5 μL was added to the plate). The plate was incubated for 30 minutes and read. […] XLFit was used to draw the drug efficacy inhibition rate curve and calculate the IC50 value. 4-parameter model [fit=(A+((B−A)/(1+((C/x)^D))))] was used."}, "rhCatC": {"target": "rhCatC (Homo sapiens (Human), UniProt P53634)", "sequence (P53634 25-134)": "as the sequence (P53634 25-134) above", "sequence (P53634 231-394)": "as the sequence (P53634 231-394) above", "sequence (P53634 395-463)": "as the sequence (P53634 395-463) above", "experiment": "In vitro enzyme activity experiment of rhCatC (AMC fluorescence assay)", "type": "biochemical", "conditions": "rhCatC enzyme, substrate H-Gly-Arg-AMC; read-out: Biological activity IC50", "method": "The in vitro inhibitory effect of compounds and positive control on rhCatC enzyme activity was evaluated by AMC fluorescence assay. rhCatC can catalyze the reaction of substrate peptide H-Gly-Arg-AMC, and release AMC to generate fluorescence. […] The compound was diluted with DMSO to a 384-well echo plate at a concentration of 100× of the highest concentration at the beginning of the experiment. 0.2 μL of the diluted compound was pipetted to a black-bottomed 384-well reaction plate for later use. The negative control well was DMSO. • 2) Activation of rhCatC: RhCatC and rhCatL were added to the activation buffer to obtain a final concentration of rhCatC of 100 μg/mL and a final concentration of rhCatL of 20 μg/mL, and incubated at room temperature for 1 hour. • 3) Enzyme activity reaction: Activated rhCatC was diluted to 0.4 μg/mL with the reaction buffer. The solution was added to the black-bottom 384-well reaction plate ([…]). 10 μL of the buffer was added for the vehicle control group. The plate containing compounds in its wells was incubated at room temperature for 30 minutes.\nThe RLU data was read, the inhibition rate was calculated, and the IC50 value was calculated according to the fitting curve of concentration and inhibition rate."}, "[2]": {"system": "neutrophil elastase (NE) downstream of CatC", "experiment": "Target binding model in C57BL/6 mice: NE protease activity in bone marrow", "type": "in vivo", "conditions": "3 mg/kg PO, 8 days, bone marrow cell lysate, female C57BL/6 mice", "method": "1. Experimental protocol: In order to investigate the inhibitory effect of the compounds on the activity of neutrophil elastase (hereinafter referred to as NE) downstream of CatC in neutrophil, female C57BL/6 mice were administered according to the following table:\n2. Experimental procedures: The compound or vehicle control was administered continuously for 8 days. On Day 1 to 7, the compound or vehicle control was administered twice a day with an administration interval of 6 hours. On Day 8, the test material was collected one hour after the first administration. […] The sample was washed once with Dulbecco's phosphate buffer, centrifuged at 400 g for 5 minutes and counted. […] The supernatant was stored at −80° C. until protease activity was determined. The protease activity in the cell lysates of each group was determined using the NE protease activity detection kit (Sigma-Aldrich MAK246). 7.5 μL of 3× diluted bone marrow cell lysate or 7.5 μL of double-diluted NE standard and 7.5 μL of 25× diluted substrate were added to a 384-well plate, and the NE protease activity was immediately monitored in real-time at Ex 380 nm and Em 500 nm for 30 minutes. The RFU within the linear reaction time was determined, and the NE protease activity (ng/ml) in the sample was calibrated by the standard curve."}, "[3]": {"experiment": "Pharmacokinetic experiment in beagle dogs", "type": "in vivo", "design": "clearance: unit not given here", "conditions": "for Vd: read-out: Vdss", "method": "Beagle dogs (male, 9 to 11 kg)\nPharmacokinetic characteristics of the compounds in beagle dogs after intravenous or oral administration were determined by standard protocols. In the experiment, the compound was formulated into a clear solution, and administered to beagle dogs by single intravenous injection or oral administration. The intravenous injection vehicle was a mixed vehicle of 5% dimethyl sulfoxide and 95% (28% aqueous hydroxypropyl beta cyclodextrin solution). The oral vehicle is a solution of 0.5% hydroxypropylmethylcellulose and 0.1% polysorbate 80 in water. Whole blood samples within 24 hours were collected, and the supernatants were separated to obtain plasma samples. The sample was centrifuged to obtain the supernatant, to which an equal volume of water was added. The resulting solution was centrifuged to obtain the supernatant, which was injected into the analysis machine. Quantitative analysis of plasma concentration was carried out by LC-MS/MS analysis method, and the pharmacokinetic parameters, such as peak concentration (Cmax), clearance (Cl), half-life (T1/2), volume of distribution (Vdss) and area under the drug-time curve (AUC), were calculated."}}}
{"smiles": "N#Cc1ccc2c(c1)COc1cc(C[C@@H](C#N)NC(=O)[C@@H]3CNCCCO3)c(F)cc1-2", "note": "[Compound 14, (S)—N—((S)-1-Cyano-2-(8-cyano-2-fluoro-6H-benzo[c]chromen-3-yl)ethyl)-1,4-oxazepane-2-carboxamide]", "values": [{"measurement": "PK properties compared with AZD7986", "setting": "[1]", "result": "better PK properties than AZD7986"}, {"measurement": "oral bioavailability compared with AZD7986", "setting": "[1]", "result": "increased"}, {"measurement": "decrease of clearance rate compared with AZD7986", "setting": "[1]; IV", "result": "about 1.8 times"}, {"measurement": "increase of intravenous exposure compared with AZD7986", "setting": "[1]; IV", "result": 1.8, "unit": "times"}, {"measurement": "increase of oral exposure compared with AZD7986", "setting": "[1]; PO", "result": 3.1, "unit": "times"}, {"measurement": "AUC(0-t)", "setting": "[1]; IV, 2 mg/kg", "result": 3770, "unit": "ng·h/mL"}, {"measurement": "clearance", "setting": "[1]; IV, 2 mg/kg", "result": 8.49, "unit": "mL/min/kg"}, {"measurement": "half-life", "setting": "[1]; IV, 2 mg/kg", "result": 3.08, "unit": "h"}, {"measurement": "Vd", "setting": "[1]; IV, 2 mg/kg", "result": 1.75, "unit": "L/kg"}, {"measurement": "AUC(0-t)", "setting": "[1]; PO, 5 mg/kg", "result": 6610, "unit": "ng·h/mL"}, {"measurement": "Tmax", "setting": "[1]; PO, 5 mg/kg", "result": 0.5, "unit": "h"}, {"measurement": "bioavailability", "setting": "[1]; PO, 5 mg/kg", "result": 65.3, "unit": "%"}, {"measurement": "half-life", "setting": "[1]; PO, 5 mg/kg", "result": 2.69, "unit": "h"}, {"measurement": "IC50", "setting": "CatC", "result": 6.1, "unit": "nM"}, {"measurement": "IC50", "setting": "rhCatC", "result": 5.31, "unit": "nM"}, {"measurement": "inhibitory rate of NE protease activity compared with AZD7986", "setting": "[2]", "result": "higher inhibitory rate of NE protease activity than the reference compound AZD7986"}, {"measurement": "PK properties compared with AZD7986", "setting": "[3]", "result": "better PK properties than AZD7986"}, {"measurement": "decrease of clearance rate compared with AZD7986", "setting": "[3]; IV", "result": "about 3 times"}, {"measurement": "increase of intravenous exposure compared with AZD7986", "setting": "[3]; IV", "result": 3.4, "unit": "times"}, {"measurement": "increase of oral exposure compared with AZD7986", "setting": "[3]; PO", "result": 3.0, "unit": "times"}, {"measurement": "AUC(0-t)", "setting": "[3]; male, dog, plasma, IV, 1 mg/kg", "result": 4790, "unit": "ng·h/mL"}, {"measurement": "clearance", "setting": "[3]; male, dog, plasma, IV, 1 mg/kg", "result": 0.172}, {"measurement": "half-life", "setting": "[3]; male, dog, plasma, IV, 1 mg/kg", "result": 10.2, "unit": "h"}, {"measurement": "Vd", "setting": "[3]; male, dog, plasma, IV, 1 mg/kg", "result": 2.29, "unit": "L/kg"}, {"measurement": "AUC(0-t)", "setting": "[3]; male, dog, plasma, PO, 2 mg/kg", "result": 10900, "unit": "ng·h/mL"}, {"measurement": "Tmax", "setting": "[3]; male, dog, plasma, PO, 2 mg/kg", "result": 3.33, "unit": "h"}, {"measurement": "bioavailability", "setting": "[3]; male, dog, plasma, PO, 2 mg/kg", "result": 100, "unit": "%"}, {"measurement": "half-life", "setting": "[3]; male, dog, plasma, PO, 2 mg/kg", "result": 12.3, "unit": "h"}]}
{"smiles": "N#Cc1ccc2c(c1)-c1cc(F)c(C[C@@H](C#N)NC(=O)[C@@H]3CNCCCO3)cc1OC2", "note": "[Compound 32, (S)—N—((S)-1-Cyano-2-(9-cyano-2-fluoro-6H-benzo[c]chromen-3-yl)ethyl)-1,4-oxazepane-2-carboxamide]", "values": [{"measurement": "IC50", "setting": "CatC", "result": 7, "unit": "nM"}, {"measurement": "IC50", "setting": "rhCatC", "result": 13, "unit": "nM"}, {"measurement": "inhibitory rate of NE protease activity compared with AZD7986", "setting": "[2]", "result": "higher inhibitory rate of NE protease activity than the reference compound AZD7986"}]}
{"smiles": "Cn1c(=O)oc2ccc(-c3ccc(C[C@@H](C#N)NC(=O)[C@@H]4CNCCCO4)cc3)cc21", "note": "[AZD7986, reference compound]", "values": [{"measurement": "AUC(0-t)", "setting": "[1]; IV, 2 mg/kg", "result": 2120, "unit": "ng·h/mL"}, {"measurement": "clearance", "setting": "[1]; IV, 2 mg/kg", "result": 15.1, "unit": "mL/min/kg"}, {"measurement": "half-life", "setting": "[1]; IV, 2 mg/kg", "result": 2.74, "unit": "h"}, {"measurement": "Vd", "setting": "[1]; IV, 2 mg/kg", "result": 2.34, "unit": "L/kg"}, {"measurement": "AUC(0-t)", "setting": "[1]; PO, 5 mg/kg", "result": 2130, "unit": "ng·h/mL"}, {"measurement": "Tmax", "setting": "[1]; PO, 5 mg/kg", "result": 1.5, "unit": "h"}, {"measurement": "bioavailability", "setting": "[1]; PO, 5 mg/kg", "result": 40.2, "unit": "%"}, {"measurement": "half-life", "setting": "[1]; PO, 5 mg/kg", "result": 3.18, "unit": "h"}, {"measurement": "AUC(0-t)", "setting": "[3]; male, dog, plasma, IV, 1 mg/kg", "result": 1410, "unit": "ng·h/mL"}, {"measurement": "half-life", "setting": "[3]; male, dog, plasma, IV, 1 mg/kg", "result": 13.5, "unit": "h"}, {"measurement": "Vd", "setting": "[3]; male, dog, plasma, IV, 1 mg/kg", "result": 9.26, "unit": "L/kg"}, {"measurement": "AUC(0-t)", "setting": "[3]; male, dog, plasma, PO, 2 mg/kg", "result": 3670, "unit": "ng·h/mL"}, {"measurement": "Tmax", "setting": "[3]; male, dog, plasma, PO, 2 mg/kg", "result": 1.67, "unit": "h"}, {"measurement": "bioavailability", "setting": "[3]; male, dog, plasma, PO, 2 mg/kg", "result": 104, "unit": "%"}, {"measurement": "half-life", "setting": "[3]; male, dog, plasma, PO, 2 mg/kg", "result": 15.3, "unit": "h"}]}
